In patent US7423149B2, “Substituted n-aryl amidines as selective D1 dopamine receptor antagonists for the treatment of obesity and CNS disorders” (Schering Corporation, priority 2003, dated 2008):
Where two headings read alike, the source gives them in different places.

Assays:
[1] = molecular target: T1, human Dopamine D1 receptor (Homo sapiens, UniProt P21728); assay: radioligand binding competition assay, displacement of [3H]SCH 23390 from D1 receptor (Ltk-cells membranes);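 on D1 binding and D2:D1 Selectivity: under 5 nM class also requires D2 to D1 selectivity above 500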
T1 construct: expressed in transfected cells; host or cells: Ltk- cells (mouse fibroblasts), membrane preparation
Text: (§1) Biological Activity: Compounds from this disclosure have been biologically characterized by their ability to displace a known D1-like selective ligand, [3H]SCH 23390 from the human Dopamine D1 receptor, and a known D2-like selective ligand, [3H] Methylspiperone, from the human Dopamine D2 and D4 receptors.
(§2) Affinity values (Ki) of compounds at human dopamine receptors were ascertained using radioligand binding competition assays. Cells expressing D1 (Ltk-cells), D2 (long variant, Ltk-cells), D4 (CHO cells) and D5 (GH4C1 cells) receptors were lysed in hypotonic buffer for membrane preparation. Membranes were incubated with various concentrations of test compound and 1 nM [3H] SCH 23390 (D1 and D5) and 0.2 nM [3H] Methylspiperone for (D2 and D4) assays. Non-specific binding was defined as binding in the presence of 10 micromolar of SCH 23390 for D1 and D5 assays and 10 micromolar butaclamol for D2 and D4 assays. Following incubation to equilibrium (1 hour at room temperature), bound radioligand was separated from free by rapid filtration. Bound radioactivity on the dried filters was quantified by liquid scintillation counting.
(§3) Selectivity is determined by dividing Ki for D2, D4 or D5 receptors by Ki for D1 receptor.

[2] = molecular target: T2, human Dopamine D2 receptor (Homo sapiens, UniProt P14416); assay: radioligand binding competition assay, displacement of [3H] Methylspiperone from D2 receptor (long variant, Ltk-cells membranes); details: Ki for D2 divided by Ki for D1
T2 construct: expressed in transfected cells; host or cells: Ltk- cells (mouse fibroblasts), membrane preparation
Text: as §1, §2, §3

[3] = class combines Ki (D1) and, for A and B, D2:D1 selectivity (Ki D2 / Ki D1), read-out: D1 binding and D2:D1 Selectivity

T1 sequence (P21728 whole entry): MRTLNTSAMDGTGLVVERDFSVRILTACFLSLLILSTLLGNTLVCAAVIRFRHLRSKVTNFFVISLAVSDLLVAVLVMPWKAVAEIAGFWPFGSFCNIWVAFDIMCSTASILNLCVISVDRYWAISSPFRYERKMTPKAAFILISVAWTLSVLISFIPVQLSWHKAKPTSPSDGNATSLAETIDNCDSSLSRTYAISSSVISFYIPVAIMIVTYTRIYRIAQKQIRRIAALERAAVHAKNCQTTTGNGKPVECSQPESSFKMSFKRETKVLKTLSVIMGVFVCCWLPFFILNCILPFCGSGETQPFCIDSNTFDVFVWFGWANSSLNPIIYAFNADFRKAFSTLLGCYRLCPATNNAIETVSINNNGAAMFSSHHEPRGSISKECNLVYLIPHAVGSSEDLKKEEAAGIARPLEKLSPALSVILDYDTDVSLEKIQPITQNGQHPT
T2 sequence (P14416 whole entry): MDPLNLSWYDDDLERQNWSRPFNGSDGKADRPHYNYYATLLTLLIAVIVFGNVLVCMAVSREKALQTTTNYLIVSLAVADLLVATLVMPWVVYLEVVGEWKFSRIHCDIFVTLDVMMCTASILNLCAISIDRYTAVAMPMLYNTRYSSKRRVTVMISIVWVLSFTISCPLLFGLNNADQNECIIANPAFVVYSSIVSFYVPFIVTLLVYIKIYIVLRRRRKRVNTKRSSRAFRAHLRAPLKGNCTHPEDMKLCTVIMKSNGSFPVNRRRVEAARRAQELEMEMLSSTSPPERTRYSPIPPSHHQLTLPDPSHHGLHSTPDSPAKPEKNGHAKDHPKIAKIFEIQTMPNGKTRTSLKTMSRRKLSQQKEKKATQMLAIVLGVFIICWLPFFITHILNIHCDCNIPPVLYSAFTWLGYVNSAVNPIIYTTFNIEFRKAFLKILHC

| Ki [1, 3] | Ki ([1]; human D1 receptor, [3H] SCH 23390, read-out: Ki (D1) value) | D2:D1 ratio value [2] | Compound |
| --- | --- | --- | --- |
| < 5 nM | 0.9 nM | 1258.5 | N=C(/C=C/c1ccc(N2CCNCC2)cc1Cl)Nc1ccc(Cl)cc1 [Example 42, (E)-N-(4-Chlorophenyl)-3-[2-chloro-4(piperazin-1-yl)phenyl]-2-propenimidamide] |
| 50 to 10000 nM | – | – | N=C(/C=C/c1ccc(Cc2cccnc2)cc1)Nc1ccc(OC(F)(F)F)cc1 [Example 124] |
| 50 to 10000 nM | – | – | CO/N=C(/C)c1ccc(-c2ccc(/C=C/C(=N)Nc3ccc(Cl)cc3)cc2)cc1 [Example 125, N-(4-chloro-phenyl)-3-[4′-(1-methoxyimino-ethyl)-biphenyl-4-yl]-acrylamidine] |
| 50 to 10000 nM | – | – | N=C(/C=C/c1ccc(N2CCCC3CCCCC32)cc1)Nc1ccc(Cl)cc1 (centres unmarked) [Example 126] |
| 50 to 10000 nM | – | – | N=C(Nc1ccc(Cl)cc1)c1ccc2ccccc2n1 [Example 127] |
| 50 to 10000 nM | – | – | N=C(/C=C/c1ccc(Cc2cccnc2)cc1)Nc1ccc(Cl)c(O)c1 [Example 128] |
| 50 to 10000 nM | – | – | COc1ccc(/C=C/C(=N)Nc2ccc(OC)c(OC)c2)cc1 [Example 129] |
| 50 to 10000 nM | – | – | COc1ccc(/C=C/C(=N)Nc2ccc(C)c([N+](=O)[O-])c2)cc1 [Example 130] |
| 50 to 10000 nM | – | – | CC(C)(C)c1ccc(-c2ccc(/C=C/C(=N)Nc3ccc(Cl)cc3)cc2)cc1 [Example 131] |
| 50 to 10000 nM | – | – | N=C(Cc1ccc2ccccc2c1)Nc1ccc(Cl)cc1 [Example 132] |
| 50 to 10000 nM | – | – | COc1ccc(/C=C/C(=N)Nc2ccc(C(C)(C)C)cc2)cc1 [Example 133] |
| 50 to 10000 nM | – | – | N=C(CCc1ccc(Cc2c[nH]cn2)cc1)Nc1ccc(Cl)cc1 [Example 134] |
